Values joined by “and” are separate entries in the source; they are usually repeats but may differ in a detail not shown here. Identical values can stand only once.
Columns and labels:
Experiment in all cases: PDSP GPCR panel primary binding assays at 10 μM
[1] = target: T1, cloned human or rodent CNS receptors, channels, and transporters (PDSP panel) (Homo sapiens, UniProt P35372); details: primary assay
T1 construct: expressed in transfected cells
Outline: (§1)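 Secondary binding curves (11 points, triplicate) were run at targets where the 10 μM primary screen, done in quadruplicate, displaced over 50% of radio-labelled standard ligand on average. Primary screening covered 46–47 cloned human or rodent CNS targets; H3, PBR and GABAA were not followed up.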

[2] = target: T2, cloned human or rodent CNS receptors, channels, and transporters (PDSP panel) (Homo sapiens, UniProt P08908); details: primary assay
T2 construct: expressed in transfected cells
T2 sequence (P08908 1-422): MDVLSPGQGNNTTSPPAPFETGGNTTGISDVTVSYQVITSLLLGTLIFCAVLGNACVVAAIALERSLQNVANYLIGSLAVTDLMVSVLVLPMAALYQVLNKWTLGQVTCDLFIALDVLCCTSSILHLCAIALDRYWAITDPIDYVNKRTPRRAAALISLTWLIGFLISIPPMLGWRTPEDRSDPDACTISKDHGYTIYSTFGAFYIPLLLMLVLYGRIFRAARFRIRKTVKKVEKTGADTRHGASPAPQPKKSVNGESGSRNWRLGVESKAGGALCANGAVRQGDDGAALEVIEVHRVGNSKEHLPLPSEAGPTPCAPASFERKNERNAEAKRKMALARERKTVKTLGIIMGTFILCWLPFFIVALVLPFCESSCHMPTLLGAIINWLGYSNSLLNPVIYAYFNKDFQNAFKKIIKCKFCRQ
Outline: as §1

[3] = target: T3, cloned human or rodent CNS receptors, channels, and transporters (PDSP panel) (Homo sapiens, UniProt P18089); details: primary assay
T3 construct: expressed in transfected cells
T3 sequence (P18089 1-450): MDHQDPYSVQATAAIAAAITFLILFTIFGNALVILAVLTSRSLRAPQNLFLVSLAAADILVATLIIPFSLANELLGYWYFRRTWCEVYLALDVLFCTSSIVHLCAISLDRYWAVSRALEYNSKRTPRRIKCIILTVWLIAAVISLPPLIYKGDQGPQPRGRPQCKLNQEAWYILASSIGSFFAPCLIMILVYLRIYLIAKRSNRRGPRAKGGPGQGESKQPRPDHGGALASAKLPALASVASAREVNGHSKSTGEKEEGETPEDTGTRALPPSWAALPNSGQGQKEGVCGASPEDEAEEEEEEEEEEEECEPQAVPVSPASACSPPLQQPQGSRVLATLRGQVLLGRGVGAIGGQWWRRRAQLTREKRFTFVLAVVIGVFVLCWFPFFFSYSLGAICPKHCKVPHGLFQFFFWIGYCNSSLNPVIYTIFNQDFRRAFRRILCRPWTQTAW
Outline: as §1

[4] = target: T4, cloned human or rodent CNS receptors, channels, and transporters (PDSP panel) (Homo sapiens, UniProt P35462); details: D3, primary assay; for Mean %: mean inhibition; for Inhibition 1: replicate 1; for Inhibition 2: replicate 2; for Inhibition 3: replicate 3; for Inhibition 4: replicate 4
T4 construct: expressed in transfected cells
Outline: as §1

[5] = target: T5, cloned human or rodent CNS receptors, channels, and transporters (PDSP panel) (Homo sapiens, UniProt P31645); details: primary assay
T5 construct: expressed in transfected cells
Outline: as §1

[6] = target: T6, cloned human or rodent CNS receptors, channels, and transporters (PDSP panel) (Homo sapiens, UniProt P28566); details: primary assay
T6 construct: expressed in transfected cells
Outline: as §1

[7] = target: T7, cloned human or rodent CNS receptors, channels, and transporters (PDSP panel) (Homo sapiens, UniProt P25100); details: primary assay
T7 construct: expressed in transfected cells
T7 sequence (P25100 1-572): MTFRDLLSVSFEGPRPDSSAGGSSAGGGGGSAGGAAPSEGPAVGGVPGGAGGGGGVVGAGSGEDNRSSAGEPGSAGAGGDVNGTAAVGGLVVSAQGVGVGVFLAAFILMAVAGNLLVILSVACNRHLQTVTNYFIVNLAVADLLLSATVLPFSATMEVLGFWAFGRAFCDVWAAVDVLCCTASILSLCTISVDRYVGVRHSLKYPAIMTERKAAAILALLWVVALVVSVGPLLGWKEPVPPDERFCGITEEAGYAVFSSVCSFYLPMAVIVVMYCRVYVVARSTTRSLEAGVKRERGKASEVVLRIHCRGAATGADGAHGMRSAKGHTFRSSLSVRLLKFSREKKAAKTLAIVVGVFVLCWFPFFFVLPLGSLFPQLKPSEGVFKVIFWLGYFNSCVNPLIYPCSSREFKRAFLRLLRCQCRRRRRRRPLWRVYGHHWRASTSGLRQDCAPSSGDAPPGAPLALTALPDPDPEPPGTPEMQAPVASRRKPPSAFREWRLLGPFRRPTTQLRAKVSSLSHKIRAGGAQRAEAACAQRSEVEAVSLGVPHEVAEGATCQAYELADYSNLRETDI
Outline: as §1

[8] = target: T8, cloned human or rodent CNS receptors, channels, and transporters (PDSP panel) (Homo sapiens, UniProt P20309); details: primary assay
T8 construct: expressed in transfected cells
Outline: as §1

[9] = target: T9, cloned human or rodent CNS receptors, channels, and transporters (PDSP panel) (Homo sapiens, UniProt P21918); details: primary assay
T9 construct: expressed in transfected cells
Outline: as §1

T6 sequence (P28566 whole entry): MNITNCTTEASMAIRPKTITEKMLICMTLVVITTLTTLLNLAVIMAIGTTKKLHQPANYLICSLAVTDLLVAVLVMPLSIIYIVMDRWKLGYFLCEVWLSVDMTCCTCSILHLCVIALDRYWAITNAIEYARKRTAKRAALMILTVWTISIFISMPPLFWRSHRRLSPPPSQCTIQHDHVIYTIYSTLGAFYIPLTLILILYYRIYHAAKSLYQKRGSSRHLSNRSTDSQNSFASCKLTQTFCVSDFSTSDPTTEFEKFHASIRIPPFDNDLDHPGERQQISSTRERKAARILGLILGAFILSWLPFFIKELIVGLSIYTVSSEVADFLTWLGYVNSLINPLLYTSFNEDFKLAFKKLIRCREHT
T5 sequence (P31645 whole entry): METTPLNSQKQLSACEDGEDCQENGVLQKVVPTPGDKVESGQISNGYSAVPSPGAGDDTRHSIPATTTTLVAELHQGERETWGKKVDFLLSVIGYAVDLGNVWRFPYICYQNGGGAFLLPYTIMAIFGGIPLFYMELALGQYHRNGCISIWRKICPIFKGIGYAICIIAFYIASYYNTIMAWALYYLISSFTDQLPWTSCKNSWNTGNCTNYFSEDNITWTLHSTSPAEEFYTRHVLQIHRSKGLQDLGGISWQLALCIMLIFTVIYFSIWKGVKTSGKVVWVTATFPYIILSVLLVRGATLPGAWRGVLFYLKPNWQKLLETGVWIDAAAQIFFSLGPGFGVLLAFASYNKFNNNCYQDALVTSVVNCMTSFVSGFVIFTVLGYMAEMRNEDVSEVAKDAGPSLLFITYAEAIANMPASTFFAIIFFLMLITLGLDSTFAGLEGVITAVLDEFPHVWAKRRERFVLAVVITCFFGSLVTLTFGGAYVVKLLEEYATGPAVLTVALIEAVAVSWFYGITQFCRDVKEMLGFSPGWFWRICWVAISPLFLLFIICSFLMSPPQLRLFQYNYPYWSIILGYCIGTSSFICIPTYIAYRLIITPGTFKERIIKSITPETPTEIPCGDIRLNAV
T9 sequence (P21918 whole entry): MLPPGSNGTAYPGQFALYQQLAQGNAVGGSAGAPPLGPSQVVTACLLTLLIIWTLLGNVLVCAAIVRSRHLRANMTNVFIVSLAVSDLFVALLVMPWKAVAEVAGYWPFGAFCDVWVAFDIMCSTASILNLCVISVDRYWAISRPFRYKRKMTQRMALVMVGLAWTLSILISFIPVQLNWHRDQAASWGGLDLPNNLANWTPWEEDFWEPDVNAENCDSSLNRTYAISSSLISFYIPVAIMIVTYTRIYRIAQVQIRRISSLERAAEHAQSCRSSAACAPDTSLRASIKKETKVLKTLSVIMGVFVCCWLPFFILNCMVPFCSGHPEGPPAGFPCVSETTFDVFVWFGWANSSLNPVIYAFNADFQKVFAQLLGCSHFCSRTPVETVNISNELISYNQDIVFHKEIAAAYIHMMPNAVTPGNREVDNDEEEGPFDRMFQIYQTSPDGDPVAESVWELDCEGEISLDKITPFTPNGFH
T1 sequence (P35372 whole entry): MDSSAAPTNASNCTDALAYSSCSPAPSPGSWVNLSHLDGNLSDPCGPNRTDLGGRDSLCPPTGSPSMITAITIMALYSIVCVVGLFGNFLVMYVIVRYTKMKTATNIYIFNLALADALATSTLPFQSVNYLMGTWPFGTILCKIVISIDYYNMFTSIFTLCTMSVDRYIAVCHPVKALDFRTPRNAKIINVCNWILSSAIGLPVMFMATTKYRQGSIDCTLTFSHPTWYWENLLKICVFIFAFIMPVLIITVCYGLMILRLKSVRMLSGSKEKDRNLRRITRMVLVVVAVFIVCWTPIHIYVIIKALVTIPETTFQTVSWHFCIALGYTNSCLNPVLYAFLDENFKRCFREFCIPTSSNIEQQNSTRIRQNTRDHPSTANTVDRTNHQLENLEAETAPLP
T4 sequence (P35462 whole entry): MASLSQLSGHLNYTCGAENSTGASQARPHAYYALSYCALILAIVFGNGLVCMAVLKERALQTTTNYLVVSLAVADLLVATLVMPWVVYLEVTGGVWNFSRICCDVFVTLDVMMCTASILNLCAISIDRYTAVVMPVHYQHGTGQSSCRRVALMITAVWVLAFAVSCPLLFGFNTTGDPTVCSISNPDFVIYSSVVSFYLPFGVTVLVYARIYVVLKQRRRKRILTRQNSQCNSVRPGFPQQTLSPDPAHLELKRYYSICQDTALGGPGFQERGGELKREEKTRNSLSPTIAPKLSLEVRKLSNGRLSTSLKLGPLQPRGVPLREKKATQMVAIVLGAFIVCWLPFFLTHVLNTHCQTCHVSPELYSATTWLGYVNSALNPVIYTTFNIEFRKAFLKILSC
T8 sequence (P20309 whole entry): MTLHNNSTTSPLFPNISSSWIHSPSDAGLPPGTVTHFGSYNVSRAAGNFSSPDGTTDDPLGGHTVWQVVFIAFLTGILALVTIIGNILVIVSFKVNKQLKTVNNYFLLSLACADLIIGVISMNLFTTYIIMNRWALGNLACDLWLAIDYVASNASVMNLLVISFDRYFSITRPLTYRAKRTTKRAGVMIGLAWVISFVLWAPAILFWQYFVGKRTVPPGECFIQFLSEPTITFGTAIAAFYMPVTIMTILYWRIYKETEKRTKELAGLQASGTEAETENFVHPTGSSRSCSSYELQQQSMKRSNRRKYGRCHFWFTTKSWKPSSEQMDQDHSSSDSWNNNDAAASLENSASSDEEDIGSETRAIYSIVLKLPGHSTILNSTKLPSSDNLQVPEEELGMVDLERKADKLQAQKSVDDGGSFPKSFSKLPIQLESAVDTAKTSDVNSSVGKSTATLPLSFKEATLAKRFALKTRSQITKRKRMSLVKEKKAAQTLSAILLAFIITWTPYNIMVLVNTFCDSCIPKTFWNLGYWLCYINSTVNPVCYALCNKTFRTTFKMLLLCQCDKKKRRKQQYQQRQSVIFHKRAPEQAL

O=c1oc2ccccc2cc1-c1cn2cc(Cc3ccc(F)cc3)sc2n1 [UNC10302680A, iMDK]
Inhibition 1 ([1]; Receptor MOR, 10 μM): 9.07%
Inhibition 2 ([1]; Receptor MOR, 10 μM): 9.93%
Inhibition 3 ([1]; Receptor MOR, 10 μM): 2.65%
Inhibition 4 ([1]; Receptor MOR, 10 μM): 1.88%
Mean % ([1]; Receptor MOR, 10 μM, mean of Inhibition 1-4): 5.88%
Inhibition 1 ([2]; Receptor 5-HT1A, 10 μM): 5.77%
Inhibition 2 ([2]; Receptor 5-HT1A, 10 μM): 4.57%
Inhibition 3 ([2]; Receptor 5-HT1A, 10 μM): -6.98%
Inhibition 4 ([2]; Receptor 5-HT1A, 10 μM): 3.71%
Mean % ([2]; Receptor 5-HT1A, 10 μM, mean of Inhibition 1-4): 1.77%
Inhibition 1 ([3]; Receptor Alpha2B, 10 μM): 0.83%
Inhibition 2 ([3]; Receptor Alpha2B, 10 μM): 1.88%
Inhibition 3 ([3]; Receptor Alpha2B, 10 μM): -7.31%
Inhibition 4 ([3]; Receptor Alpha2B, 10 μM): 7.87%
Mean % ([3]; Receptor Alpha2B, 10 μM, mean of Inhibition 1-4): 0.82%
Mean % [4]: -15.93%
Inhibition 1 [4]: -10.82%
Inhibition 2 [4]: -16.8%
Inhibition 3 [4]: -16.41%
Inhibition 4 [4]: -19.69%
Inhibition 1 ([5]; Receptor SERT, 10 μM): -12.44% and -8.39%
Inhibition 4 ([5]; Receptor SERT, 10 μM): -3% and 3.01%
Mean % ([5]; Receptor SERT, 10 μM, mean of Inhibition 1-4): -8.37% and -12.73%
Inhibition 1 ([6]; Receptor 5-HT1E, 10 μM): 3.08%
Inhibition 2 ([6]; Receptor 5-HT1E, 10 μM): -14.65%
Inhibition 3 ([6]; Receptor 5-HT1E, 10 μM): -14.65%
Inhibition 4 ([6]; Receptor 5-HT1E, 10 μM): -17.01%
Mean % ([6]; Receptor 5-HT1E, 10 μM, mean of Inhibition 1-4): -10.81%
Inhibition 1 ([7]; Receptor Alpha1D, 10 μM): -7.71%
Inhibition 2 ([7]; Receptor Alpha1D, 10 μM): -9.56%
Inhibition 3 ([7]; Receptor Alpha1D, 10 μM): -10.98%
Inhibition 4 ([7]; Receptor Alpha1D, 10 μM): -17.23%
Mean % ([7]; Receptor Alpha1D, 10 μM, mean of Inhibition 1-4): -11.37%
Inhibition 1 ([8]; Receptor M3, 10 μM): 9.1%
Inhibition 2 ([8]; Receptor M3, 10 μM): 60.54%
Inhibition 3 ([8]; Receptor M3, 10 μM): 10.14%
Inhibition 4 ([8]; Receptor M3, 10 μM): 13.11%
Mean % ([8]; Receptor M3, 10 μM, mean of Inhibition 1-4): 23.22%
Inhibition 1 ([9]; Receptor D5, 10 μM): 22.41%
Inhibition 2 ([9]; Receptor D5, 10 μM): 16.72%
Inhibition 3 ([9]; Receptor D5, 10 μM): -1.22%
Inhibition 4 ([9]; Receptor D5, 10 μM): 7.82%
Mean % ([9]; Receptor D5, 10 μM, mean of Inhibition 1-4): 11.43%

CCC(=O)N1CCC(NC(=O)Nc2ccc(OC(F)(F)F)cc2)CC1 [UNC10302681A, TPPU]
Mean % ([1]; MOR, mean inhibition): 7.56%
Inhibition 1 ([1]; MOR, replicate 1): 7.83%
Inhibition 2 ([1]; MOR, replicate 2): 3.61%
Inhibition 3 ([1]; MOR, replicate 3): 10.7%
Inhibition 4 ([1]; MOR, replicate 4): 8.11%
Mean % ([2]; 5-HT1A, mean inhibition): 6.94%
Inhibition 1 ([2]; 5-HT1A, replicate 1): 9.39%
Inhibition 2 ([2]; 5-HT1A, replicate 2): 25.6%
Inhibition 3 ([2]; 5-HT1A, replicate 3): 0.78%
Inhibition 4 ([2]; 5-HT1A, replicate 4): -8.02%
Mean % ([3]; Alpha2B, mean inhibition): 6.32%
Inhibition 1 ([3]; Alpha2B, replicate 1): 1.27%
Inhibition 2 ([3]; Alpha2B, replicate 2): 8.98%
Inhibition 3 ([3]; Alpha2B, replicate 3): 5.54%
Inhibition 4 ([3]; Alpha2B, replicate 4): 9.47%
Mean % [4]: -4.85%
Inhibition 1 [4]: -1.18%
Inhibition 2 [4]: -5.62%
Inhibition 3 [4]: -5.04%
Inhibition 4 [4]: -7.54%
Inhibition 1 ([5]; SERT, replicate 1): 16.43% and 21.37%
Inhibition 2 ([5]; SERT, replicate 2): -9.69% and 21.48%
Inhibition 3 ([5]; SERT, replicate 3): 7.05% and 21.19%
Inhibition 4 ([5]; SERT, replicate 4): 4.97% and 21.78%
Mean % ([6]; 5-HT1E, mean inhibition): -4.36%
Inhibition 1 ([6]; 5-HT1E, replicate 1): 0.45%
Inhibition 2 ([6]; 5-HT1E, replicate 2): -10.14%
Inhibition 3 ([6]; 5-HT1E, replicate 3): -9.09%
Inhibition 4 ([6]; 5-HT1E, replicate 4): 1.34%
Mean % ([7]; Alpha1D, mean inhibition): -10.94%
Inhibition 1 ([7]; Alpha1D, replicate 1): -5.01%
Inhibition 2 ([7]; Alpha1D, replicate 2): -6%
Inhibition 3 ([7]; Alpha1D, replicate 3): -20.78%
Inhibition 4 ([7]; Alpha1D, replicate 4): -11.97%
Mean % ([8]; M3, mean inhibition): 3.57%
Inhibition 1 ([8]; M3, replicate 1): 4.75%
Inhibition 2 ([8]; M3, replicate 2): 5.92%
Inhibition 3 ([8]; M3, replicate 3): 13.87%
Inhibition 4 ([8]; M3, replicate 4): -10.26%
Mean % ([9]; D5, mean inhibition): -7.53%
Inhibition 1 ([9]; D5, replicate 1): -6.27%
Inhibition 2 ([9]; D5, replicate 2): -1.22%
Inhibition 3 ([9]; D5, replicate 3): -4.28%
Inhibition 4 ([9]; D5, replicate 4): -18.34%

Source: paper PMC9005681, “Use of AD Informer Set compounds to explore validity of novel targets in Alzheimer's disease pathology” (Alzheimer's & Dementia : Translational Research & Clinical …, 2022)
